The values that follow come from patent US20200270309A1, “MALEIMIDE GROUP-MODIFIED ANGIOGENESIS INHIBITOR HM-1 AND USE THEREOF” (NANJING ANJI BIOLOGICAL TECHNOLOGY CO., LTD, priority 2017, published 2020).

The data set is described as follows: Half-lives and pharmacokinetic parameters of polypeptides vs HM-1. The note with it: in vivo.
The mark [1] stands for this setting: read-out: T1/2β (half-life) (converted).

Like-named read-outs stand apart in the source and are kept apart here. Peptide text beside a SMILES is read from it. * marks the point of attachment. Hexanoyl(6-maleimido) = O=C1C=CC(=O)N1CCCCCC(=O)*; Butanoyl(4-maleimido) = O=C1C=CC(=O)N1CCCC(=O)*; Propanoyl(3-maleimido) = O=C1C=CC(=O)N1CCC(=O)*; Maleimidoacetyl = O=C1C=CC(=O)N1CC(=O)*; X62 = O=C1C=CC(=O)N1CCCCCCCCCCCCC(=O)*; X48 = O=C1C=CC(=O)N1CCCCCCCCCCCC(=O)*; X77 = O=C1C=CC(=O)N1CCCCCCCCCCC(=O)*; X80 = O=C1C=CC(=O)N1c1ccccc1CCC(=O)*; X51 = O=C1C=CC(=O)N1c1ccccc1CC(=O)*; X67 = O=C1C=CC(=O)N1CCCCCCCCCC(=O)*; X82 = O=C1C=CC(=O)N1CCCCCCCCC(=O)*; X57 = O=C1C=CC(=O)N1CCCCCCCC(=O)*; X83 = O=C1C=CC(=O)N1CCCCCCC(=O)*; X45 = O=C1C=CC(=O)N1CCCCC(=O)*

For the molecule `C[C@H](NC(=O)CNC(=O)[C@H](CCCNC(=N)N)NC(=O)CN1C(=O)C=CC1=O)C(=O)N[C@@H](CC(=O)O)C(=O)N[C@@H](CCCNC(=N)N)C(=O)N[C@@H](C)C(=O)NCC(=O)NCC(=O)NCC(=O)NCC(=O)N[C@@H](CCCNC(=N)N)C(=O)NCC(=O)N[C@@H](CC(=O)O)C(=O)O` [X1] (Maleimidoacetyl-RGADRAGGGGRGD-OH), the AUC(0-inf) (read-out: AUC0-∞) was found to be 29000 ± 6940 ng·h/mL. For the same molecule, where the note is “read-out: CL (converted)”, the clearance was 0.575 mL/min/kg. Besides, the MRT inf (read-out: MRT0-∞) came out at 51.9 ± 10.2 h. Also, under setting [1], the half-life is 35.99 ± 0.29 h.
As to `C[C@H](NC(=O)CNC(=O)[C@H](CCCNC(=N)N)NC(=O)CCN1C(=O)C=CC1=O)C(=O)N[C@@H](CC(=O)O)C(=O)N[C@@H](CCCNC(=N)N)C(=O)N[C@@H](C)C(=O)NCC(=O)NCC(=O)NCC(=O)NCC(=O)N[C@@H](CCCNC(=N)N)C(=O)NCC(=O)N[C@@H](CC(=O)O)C(=O)O` [X2] ({Propanoyl(3-maleimido)}-RGADRAGGGGRGD-OH), the AUC(0-inf) (read-out: AUC0-∞) was found to be 27800 ± 7510 ng·h/mL. Moreover, where the note is “read-out: CL (converted)”, the clearance is 0.6 mL/min/kg. For the same molecule, the MRT inf (read-out: MRT0-∞) amounted to 49.8 ± 9.73 h. The half-life under setting [1] is 34.51 ± 0.28 h.
In the case of `C[C@H](NC(=O)CNC(=O)[C@H](CCCNC(=N)N)NC(=O)CCCN1C(=O)C=CC1=O)C(=O)N[C@@H](CC(=O)O)C(=O)N[C@@H](CCCNC(=N)N)C(=O)N[C@@H](C)C(=O)NCC(=O)NCC(=O)NCC(=O)NCC(=O)N[C@@H](CCCNC(=N)N)C(=O)NCC(=O)N[C@@H](CC(=O)O)C(=O)O` [X3] ({Butanoyl(4-maleimido)}-RGADRAGGGGRGD-OH), the AUC(0-inf) (read-out: AUC0-∞) was determined as 33800 ± 7660 ng·h/mL. Under “read-out: CL (converted)”, the clearance was 0.493 mL/min/kg. The MRT inf (read-out: MRT0-∞) is 60.5 ± 13.2 h. The half-life under setting [1] is 41.92 ± 0.32 h.
With `C[C@H](NC(=O)CNC(=O)[C@H](CCCNC(=N)N)NC(=O)CCCCN1C(=O)C=CC1=O)C(=O)N[C@@H](CC(=O)O)C(=O)N[C@@H](CCCNC(=N)N)C(=O)N[C@@H](C)C(=O)NCC(=O)NCC(=O)NCC(=O)NCC(=O)N[C@@H](CCCNC(=N)N)C(=O)NCC(=O)N[C@@H](CC(=O)O)C(=O)O` [X4] (X45-RGADRAGGGGRGD-OH), the AUC(0-inf) (read-out: AUC0-∞) is 30100 ± 7330 ng·h/mL. Also, under “read-out: CL (converted)”, the clearance is 0.553 mL/min/kg. Also, the MRT inf (read-out: MRT0-∞) was 54 ± 10.5 h. The half-life under setting [1] was 37.44 ± 0.27 h.
Consider `C[C@H](NC(=O)CNC(=O)[C@H](CCCNC(=N)N)NC(=O)CCCCCN1C(=O)C=CC1=O)C(=O)N[C@@H](CC(=O)O)C(=O)N[C@@H](CCCNC(=N)N)C(=O)N[C@@H](C)C(=O)NCC(=O)NCC(=O)NCC(=O)NCC(=O)N[C@@H](CCCNC(=N)N)C(=O)NCC(=O)N[C@@H](CC(=O)O)C(=O)O` [X5] ({Hexanoyl(6-maleimido)}-RGADRAGGGGRGD-OH), for which the AUC(0-inf) (read-out: AUC0-∞) worked out at 27900 ± 7030 ng·h/mL. Besides, the clearance (read-out: CL (converted)) was 0.598 mL/min/kg. Further, the MRT inf (read-out: MRT0-∞) was determined as 49.9 ± 13.2 h. In addition, under setting [1], the half-life is 34.59 ± 0.29 h.
Take `C[C@H](NC(=O)CNC(=O)[C@H](CCCNC(=N)N)NC(=O)CCCCCCN1C(=O)C=CC1=O)C(=O)N[C@@H](CC(=O)O)C(=O)N[C@@H](CCCNC(=N)N)C(=O)N[C@@H](C)C(=O)NCC(=O)NCC(=O)NCC(=O)NCC(=O)N[C@@H](CCCNC(=N)N)C(=O)NCC(=O)N[C@@H](CC(=O)O)C(=O)O` [X6] (X83-RGADRAGGGGRGD-OH): the AUC(0-inf) worked out at 30500 ± 7170 ng·h/mL, the MRT inf was determined as 54.6 ± 12.2 h and the clearance was 0.547 mL/min/kg. The half-life (T1/2β (half-life)) was 37.86 ± 0.28 h.
In turn, `C[C@H](NC(=O)CNC(=O)[C@H](CCCNC(=N)N)NC(=O)CCCCCCCN1C(=O)C=CC1=O)C(=O)N[C@@H](CC(=O)O)C(=O)N[C@@H](CCCNC(=N)N)C(=O)N[C@@H](C)C(=O)NCC(=O)NCC(=O)NCC(=O)NCC(=O)N[C@@H](CCCNC(=N)N)C(=O)NCC(=O)N[C@@H](CC(=O)O)C(=O)O` [X7] (X57-RGADRAGGGGRGD-OH) had an AUC(0-inf) of 34500 ± 6960 ng·h/mL, an MRT inf of 61.8 ± 14.3 h and a clearance of 0.485 mL/min/kg. The molecule further had a half-life (T1/2β (half-life)) of 42.83 ± 0.29 h.
Consider `C[C@H](NC(=O)CNC(=O)[C@H](CCCNC(=N)N)NC(=O)CCCCCCCCN1C(=O)C=CC1=O)C(=O)N[C@@H](CC(=O)O)C(=O)N[C@@H](CCCNC(=N)N)C(=O)N[C@@H](C)C(=O)NCC(=O)NCC(=O)NCC(=O)NCC(=O)N[C@@H](CCCNC(=N)N)C(=O)NCC(=O)N[C@@H](CC(=O)O)C(=O)O` [X8] (X82-RGADRAGGGGRGD-OH), for which the AUC(0-inf) was 27900 ± 7570 ng·h/mL, the MRT inf was found to be 50 ± 12.6 h and the clearance is 0.597 mL/min/kg. This molecule had a half-life (T1/2β (half-life)) of 34.68 ± 0.31 h.
The matching figures for `C[C@H](NC(=O)CNC(=O)[C@H](CCCNC(=N)N)NC(=O)CCCCCCCCCN1C(=O)C=CC1=O)C(=O)N[C@@H](CC(=O)O)C(=O)N[C@@H](CCCNC(=N)N)C(=O)N[C@@H](C)C(=O)NCC(=O)NCC(=O)NCC(=O)NCC(=O)N[C@@H](CCCNC(=N)N)C(=O)NCC(=O)N[C@@H](CC(=O)O)C(=O)O` [X9] (X67-RGADRAGGGGRGD-OH): 31200 ± 7350 ng·h/mL, 56 ± 13.3 h, 0.537 mL/min/kg and 38.78 ± 0.31 h.
For the molecule `C[C@H](NC(=O)CNC(=O)[C@H](CCCNC(=N)N)NC(=O)CCCCCCCCCCN1C(=O)C=CC1=O)C(=O)N[C@@H](CC(=O)O)C(=O)N[C@@H](CCCNC(=N)N)C(=O)N[C@@H](C)C(=O)NCC(=O)NCC(=O)NCC(=O)NCC(=O)N[C@@H](CCCNC(=N)N)C(=O)NCC(=O)N[C@@H](CC(=O)O)C(=O)O` [X10] (X77-RGADRAGGGGRGD-OH), the AUC(0-inf) is 31200 ± 7210 ng·h/mL, the MRT inf is 55.8 ± 12.9 h and the clearance is 0.535 mL/min/kg. Further, for the setting “T1/2β (half-life)”, the half-life is 38.64 ± 0.25 h.
`C[C@H](NC(=O)CNC(=O)[C@H](CCCNC(=N)N)NC(=O)CCCCCCCCCCCN1C(=O)C=CC1=O)C(=O)N[C@@H](CC(=O)O)C(=O)N[C@@H](CCCNC(=N)N)C(=O)N[C@@H](C)C(=O)NCC(=O)NCC(=O)NCC(=O)NCC(=O)N[C@@H](CCCNC(=N)N)C(=O)NCC(=O)N[C@@H](CC(=O)O)C(=O)O` [X11] (X48-RGADRAGGGGRGD-OH) gave an AUC(0-inf) of 25100 ± 8260 ng·h/mL, an MRT inf of 44.9 ± 11.6 h and a clearance of 0.665 mL/min/kg. Besides, for the setting “T1/2β (half-life)”, the half-life is 31.08 ± 0.29 h.
Regarding `C[C@H](NC(=O)CNC(=O)[C@H](CCCNC(=N)N)NC(=O)CCCCCCCCCCCCN1C(=O)C=CC1=O)C(=O)N[C@@H](CC(=O)O)C(=O)N[C@@H](CCCNC(=N)N)C(=O)N[C@@H](C)C(=O)NCC(=O)NCC(=O)NCC(=O)NCC(=O)N[C@@H](CCCNC(=N)N)C(=O)NCC(=O)N[C@@H](CC(=O)O)C(=O)O` [X12] (X62-RGADRAGGGGRGD-OH), the AUC(0-inf) was found to be 29200 ± 8180 ng·h/mL, the MRT inf was 52.2 ± 9.78 h and the clearance was 0.572 mL/min/kg. Further, where the note is “T1/2β (half-life)”, the half-life was 36.2 ± 0.25 h.
Molecule `C[C@H](NC(=O)CNC(=O)[C@H](CCCNC(=N)N)NC(=O)Cc1ccccc1N1C(=O)C=CC1=O)C(=O)N[C@@H](CC(=O)O)C(=O)N[C@@H](CCCNC(=N)N)C(=O)N[C@@H](C)C(=O)NCC(=O)NCC(=O)NCC(=O)NCC(=O)N[C@@H](CCCNC(=N)N)C(=O)NCC(=O)N[C@@H](CC(=O)O)C(=O)O` [X13] (X51-RGADRAGGGGRGD-OH) had an AUC(0-inf) of 33600 ± 7340 ng·h/mL, an MRT inf of 60 ± 12.5 h and a clearance of 0.497 mL/min/kg. Under “T1/2β (half-life)”, this molecule had a half-life of 41.58 ± 0.34 h.
In the case of `C[C@H](NC(=O)CNC(=O)[C@H](CCCNC(=N)N)NC(=O)CCc1ccccc1N1C(=O)C=CC1=O)C(=O)N[C@@H](CC(=O)O)C(=O)N[C@@H](CCCNC(=N)N)C(=O)N[C@@H](C)C(=O)NCC(=O)NCC(=O)NCC(=O)NCC(=O)N[C@@H](CCCNC(=N)N)C(=O)NCC(=O)N[C@@H](CC(=O)O)C(=O)O` [X14] (X80-RGADRAGGGGRGD-OH), the AUC(0-inf) worked out at 29100 ± 7660 ng·h/mL, the MRT inf is 52 ± 13.5 h and the clearance is 0.573 mL/min/kg. The molecule also showed a half-life (T1/2β (half-life)) of 36.04 ± 0.32 h.
